# Reference: patent publication US7897340B2, “Use of tumor susceptibilty gene 101 (TSG 101) as a prognostic and diagnostic marker” (The Board of Regents of the University of Texas System, priority 2006, dated 2011)
# “Also recorded” adds a separate entry of the source.
# How the values were obtained:
# p21 promoter = p21 promoter luciferase reporter assay in SKOV-3 cells; type: cell-based, human
# Excerpt: To investigate the mechanism by which TSG101 silencing induced the accumulation of p21 mRNA, a plasmid construct, p21P, with a luciferase reporter gene under the transcriptional control of the p21 promoter was co-transfected into the SKOV-3 cells either with TSG101 specific or control siRNA. […] Since SKOV-3 cells are p53-null, this apparent TSG101 silencing-mediated transcriptional activation of p21 was most likely p53-independent.
# To further confirm this observation, the luciferase reporter activity was monitored using a deletion p21 reporter construct, p21PΔ1.1, which contained a 1.1 kb deletion that removed the consensus p53-responsive element from the 5′ region of the 2.4 kb p21 promoter 27. […] Since TSG101 contained a putative DNA-binding domain and could act as a general transcriptional suppressor 2, it was hypothesized that TSG101, acting as a transcriptional corepressor, suppressed the transactional activation of p21 by binding to the p21 promoter. Consequently, suppression of TSG101 by siRNA led to the transcriptional activation of p21.
# SKOV-3 cells = experiment: Nuclear DNA condensation staining (Hoechst); type: cell-based, human; conditions: SKOV-3, day 5 following siRNA transfection
# Procedure: 2-3×10^5 SKOV-3 cells were plated in 3 cm tissue culture plates containing polylysine coated coverslips, and transfected with either control or TSG101 siRNA. Cells on coverslips were stained 5 days post-transfection with Hoechst 22658 for 30 min, rinsed with PBS, and sealed onto glass slides. Nuclear DNA condensation was examined using a fluorescence microscope (Olympus BX51) equipped with a Hamamatsu digital camera (C4742-95).
substance,measurement,setting,value
"TSG101 siRNA: siRNA duplex from Dharmacon targeting TSG101 coding sequence 413-433, SEQ ID NO: 7 and 8 (chain 1 CCUCCAGUCUUCUCUCGUCTT; chain 2 TTGGAGGUCAGAAGAGAGCAG; chemistry not fully specified; one strand is listed 3' to 5')",induction of p21 (luciferase reporter),"p21 promoter; SKOV-3, full-length p21 promoter construct p21P",6 fold
same,luciferase activity (p21 promoter reporter),"p21 promoter; SKOV-3, p21P construct co-transfected with siRNA, vs control siRNA",significantly increased; also recorded: potentiates p21 transcription
same,induction of p21 (luciferase reporter),"p21 promoter; SKOV-3, p53-deletion construct p21PΔ1.1",6 fold
same,nuclear DNA condensation/fragmentation,SKOV-3 cells,apparent increases
